Measured values from PubChem BioAssay (NCI).
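Protocol summary: plate cells (96-well), add compound at 5 concentrations, incubate 48 h, interpolate endpoints linearly. Here, GI50 denotes the concentration required for 50% inhibition of growth. Definition used: TGI = concentration required for complete inhibition of growth.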

Assays:
Assay in all cases: NCI tumour cell line growth inhibition, 48 h
HOP-18 NSCLC = test system: HOP-18 NSCLC
DMS 114 small cell lung = test system: DMS 114 small cell lung
SNB-78 CNS = test system: SNB-78 CNS
DMS 273 small cell lung = test system: DMS 273 small cell lung
KM20L2 colon = test system: KM20L2 colon
XF 498 CNS = test system: XF 498 CNS
LXFL 529 NSCLC = test system: LXFL 529 NSCLC
P388/ADR leukemia = test system: P388/ADR leukemia
SN12K1 renal = test system: SN12K1 renal
P388 leukemia = test system: P388 leukemia
RXF-631 renal = test system: RXF-631 renal

Row | Structure (SMILES) | TGI (HOP-18 NSCLC) | TGI (DMS 114 small cell lung) | TGI (SNB-78 CNS) | TGI (DMS 273 small cell lung) | TGI (KM20L2 colon) | TGI (XF 498 CNS) | TGI (LXFL 529 NSCLC) | TGI (P388/ADR leukemia) | TGI (SN12K1 renal) | TGI (P388 leukemia) | GI50 (HOP-18 NSCLC) | GI50 (DMS 273 small cell lung) | GI50 (LXFL 529 NSCLC) | TGI (RXF-631 renal)
1 | Cc1cc(=O)[nH]c(NN2C(Cl)C(=O)C2c2cccc(Cl)c2)n1 (centres undefined) | 55.2 µM | 54.8 µM | 79.3 µM | 33.9 µM | > 100 µM |  |  |  |  |  |  |  |  | 
2 | CCOC(=O)N(c1ccccc1)N(CC)C(=O)/C(C)=N/Nc1ccc([N+](=O)[O-])cc1 | 36.9 µM | 43.5 µM | 58.9 µM | 30 µM | 31.3 µM | 33.4 µM | 34.6 µM |  |  |  |  |  |  | 
3 | O=c1[nH]cnc2c1nnn2CCCCCCCCCCCCn1nnc2c(=O)[nH]cnc21 | > 100 µM | 39.4 µM | 48 µM | > 100 µM | > 100 µM |  | > 100 µM |  |  |  |  |  |  | 
4 | O=C1Nc2ccccc2Nc2ccncc21 | > 100 µM | > 100 µM | > 100 µM | > 100 µM | > 100 µM |  |  | > 31.6 µM | > 100 µM | > 100 µM |  |  |  | 
5 | CC(=O)[CH-]C(=O)c1ccccc1.CC(=O)[CH-]C(=O)c1ccccc1.C[C@]12CCC(=O)C=C1CC[C@@H]1C2CC[C@@]2(C)C1CC[C@]2(C)[O-].C[C@]12CCC(=O)C=C1CC[C@@H]1C2CC[C@@]2(C)C1CC[C@]2(C)[O-].Cl.[Ti+4] (some centres undefined) | > 100 µM |  |  | 89.9 µM |  |  | 76.4 µM |  |  |  | 40 µM | 17.4 µM | 20.7 µM | 
6 | O=C1C(CN2CCOCC2)CCCC1CN1CCOCC1 (centres undefined) | 3.2 µM | 11.4 µM | 5.02 µM | 19.4 µM | 58.2 µM |  | 2.96 µM |  |  |  |  |  |  | 30.4 µM
7 | Nc1c(Cl)ncnc1NCCCNc1ncnc(Cl)c1N | > 100 µM | > 100 µM | > 100 µM | > 100 µM | > 100 µM | > 100 µM | > 100 µM |  |  |  |  |  |  | 
8 | Cc1c(/C=N/N(C)C)oc2c1cc(O)c1ncccc12 | 16 µM | 8.59 µM |  | 37.7 µM | > 100 µM | > 100 µM | > 100 µM |  |  |  |  |  |  | 
9 | CN1c2ccccc2N(C(=O)c2ccccc2)C(CC(=O)O)c2cccn21 (centres undefined) | > 100 µM | > 100 µM |  | > 100 µM | > 100 µM | > 100 µM | > 100 µM |  |  |  |  |  |  | > 100 µM
10 | CCc1nc2ccc(NCCN(C)C)c3c(=O)c4ccccc4n1c23 | 6.55 µM | 14.8 µM | 19.3 µM |  | 6.31 µM |  | 13.9 µM |  |  |  |  |  |  | 
11 | CC1(C)C(=O)C(C)(C)C1=S |  | > 100 µM |  | > 100 µM | > 100 µM | > 100 µM | > 100 µM |  |  |  |  |  |  | 
